According to patent US5912270A, “Anti-inflammatory compounds” (SmithKline Beecham Corporation, priority 1996, dated 1999):
Counter-ions that a name gives are not always drawn. Like-named read-outs stand apart in the source and are kept apart here.

Columns and labels:
[1] = tested on: TPA-induced Mouse Ear Inflammation; test: Assay (g): TPA-induced Mouse Ear Inflammation (edema and MPO); assay type: in vivo; conditions: for TPA % change in edema / change in MPO for TPA model / MPO ED50 / edema ED50: topical; for TPA % change in edema / change in MPO for TPA model: doses of 0.2, 0.1 and 0.3 for dexamethasone, scalaradial, WY 50,295 respectively; for MPO ED50 / edema ED50: TPA ear model
Description: (§1) Male Balb/c inbred mice were obtained from Charle River Breeding Laboratories (Kingston, N.Y.). Within a single experiment mice (22-25 g) were age-matched. These in vivo experiments typically involved use of 5-6 animals/group.
TPA (12-0-tetradecanoylphorbol 13-acetate) (Sigma Chemical Company) in acetone (4 mg/20 ml) was applied to the inner and outer surfaces of the left ear of BALB/c male mice. The thickness of both ears was then measured with a dial micrometer (Mitutoyo, Japan) at both 2 and 4 hours after treatment, and the data expressed as the change in thickness (10^-3 cm) between treated and untreated ears. […] After measuring the edema, the inflammed left ears were removed and stored at -70° C. until they were assayed for MPO (myeloperoxidase) activity where appropriate.
On the day of the assay, partially thawed ear tissues were minced and then homogenized (10% w/v) with a Tissumizer homogenizer (Tekmar Co.) in 50 mM phosphate buffer (pH 6) containing 0.5% HTAB. The tissue homogenates were taken through three cycles of freeze-thaw, followed by brief sonication (10 sec). The method of Bradley et al. was used with modifications as described. […] Supernatant MPO activity was quantified kinetically (change in absorbance measured over 3 min, sampled at 15-sec intervals) using a Beckman DU-7 spectrophotometer and a Kinetics Analysis package (Beckman Instruments, Inc.). One unit of MPO activity is defined as that degrading one micromole of peroxide per minute at 25° C.
Statistical analysis was done using Student's "t" test.

[2] = tested on: Arachidonic acid induced ear inflammation; test: Assay (h): Arachidonic acid induced ear inflammation assay; assay type: in vivo, mouse; conditions: for AA % change in edema / change in MPO for AA: topical, doses of 0.2, 0.1 and 0.3 for dexamethasone, scalaradial, WY 50,295 respectively; for activity in the AA ear model: @ 1 mg
Description: as §1
Arachidonic acid is dissolved in acetone ([…]) to the left ear of BALB/c male mice. The thickness of both ears was measured with a constant pressure thickness guage 1 hour after treatment and the data expressed as the change in thickness between treated and untreated ears. Test compounds or vehicle are given at the time of AA applciation. The inflammatory cell infiltration is measured by MPO activity as described above in the TPA ear edema assay. After the edema measurements are made, the inflamed ears are removed and assayed for MPO activity.

CoA-IT = test: Assay (b): microsomal CoA-IT activity assay; assay type: biochemical, human; conditions: U937 microsomes
Description: The following is a method to measure CoA-IT activity and the effects of compounds on CoA-IT activity. The assay is based upon mixing cellular material containing CoA-IT activity with a stable lyso phospholipid such as […] and measuring the production of phospholipid product such as […] occurring in the absence of added CoA or CoA-fatty acids.
Any inflammatory cell that contains high levels of CoA-IT activity can be used, such as neutrophils, macrophages or cell lines such as U937 cells. […] Cells were grown without differentiation (basal state) by any agent, such as dimethyl sulfoxide. As used herein, "inflammatory cells" include, but are not limited to neutrophils, macrophages, monocytes, lymphocytes, eosinophils, basophils, and mast cells.
Microsomes were prepared using standard techniques. In this case, cells were washed with a buffer of 250 mM sucrose, 10 mM Tris, 1 mM EGTA, 1 mM MgCl2, pH 7.4 and ruptured by N2 cavitation (750 psi, 10 minutes). The ruptured cells were centrifuged 1000×g, 5 minutes. The resulting supernatant was centrifuged at 20,000×g,~20 minutes. Microsomes were prepared from this supernatant by centrifugation at 100,000×g, 60 minutes. The resulting pellet was washed once with assay buffer (150 mM NaCl, 10 mM Na2 KPO4, 1 mM EGTA, pH 7.4), recentrifuged and the pellet resuspended in assay buffer (4-20 mg protein/ml) and was stored at -80° C. until assayed.
CoA-IT activity was measured in 1.5 ml centrifuge tubes in a total volume of 100 ul. Microsomes were diluted in assay buffer to the desired protein concentration (6-20 ug/tube). The reaction was initiated by addition of [3H ]1-alkyl-2-lyso-sn-glycero-3-phosphocholine (GPC) (~0.1 uCi/tube) and 1 μM final cold 1-alkyl-2-lyso-GPC in assay buffer with 0.25 mg/ml fatty acid-poor bovine serumalbumin (BSA) (Calbiochem, La Jolla, Calif.). [3H]1-2-alkyl-2-lyso-GPC, approximately 50 Ci/mmol, was from NEN-Dupont (Boston, Mass.) and cold 1-alkyl-2-lyso-GPC was from Biomol (Plymouth Meeting, Pa). Microsomes were pretreated with desired agents for the desired time (10 minutes) before the addition of [3H]1-alkyl-2-lyso-GPC. The reaction was run for the desired time (10 minutes) at 37° C. The reaction was stopped and the lipids extracted by addition of 100 ul of chloroform:methanol (1:2, v/v) followed by 100 ul of chloroform and 100 ul of 1M KCI. The samples were vortexed and centrifuged at high speed in a microfuge for 2-3 minutes. An aliquot of the chloroform-extracted materials were separated, usually by TLC in chloroform/methanol/acetic acid/water (50:25:8:4, v/v), visualized by radioscanning (Bioscan) and the product, [3H] 1-alkyl-2-acyl-GPC, was scraped and quantified by liquid scintillation spectroscopy. […] Other methods can be used to separate substrate from product, including but not limited to column chromatography, affinity chromatography and post reaction derivitization.

human Monocytes = test: Assay (f): stimulated eicosanoid release by human monocytes; assay type: cell-based; conditions: Monocyte
Description: Human Monocyte Isolation. Leukocyte-rich leukopaks obtained from Biological Specialties (Lansdale, Pa.) were collected from male volunteers who were not talking antiinflammatory drugs. Leukopaks were centrifuged (90×g for 15 min) twice to remove the platelet-rich plasma. The cell pellet was washed by centrifugation and resuspended in HBSS without Ca^2+ or Mg^2+. Histopaque 1077 was layered under the cell suspension and centrifuged at 400×g for 30 min to obtain the buffy coat. The interfacial buffy coat, containing monocytes and lymphocytes, was removed and saved. The buffy coat was washed twice with HBSS without Ca^2+ or Mg^2+ by centrifugation. […]
Measurement of Stimuli-Induced Eicosanoid Release. […] (A23187, 1 μM,(15 min). The reaction was terminated by reduction of pH through addition of citric acid and centrifugation (10 min, 400×g, 4° C.). Cell viability was monitored before and after experiments using trypan blue exclusion. The cell-free media was decanted and stored at -70° C. until analyzed. Prostaglandin E2 and LTC4 were directly measured in cell-free media using enzyme immunoassay (EIA) kits purchased from Caymen Chemical Co. (Ann Arbor, Mich.). Sample or standard dilutions were made with appropriate media and analyzed in triplicate. Results were obtained by extrapolation from a standard curve prepared in the media and expressed as pg or ng/ml of sample.

## CC(=O)O[C@H]1C[C@@H]2[C@@]3(C)CCCC(C)(C)[C@@H]3CC[C@@]2(C)[C@@H]2CC=C(C=O)[C@H](C=O)[C@@]12C [scalaradial]
[1]
  TPA % change in edema: -46%
  change in MPO for TPA model: -65
[2]
  AA % change in edema: -11%
  change in MPO for AA: -33

## COc1cccc2c1cc([N+](=O)[O-])c1c(C(=O)O)cc3c(c12)OCO3 [aristolochic acid]
CoA-IT; at concentrations up to 500 μM
  effect on CoA-IT activity: no effect

## CC(C(=O)O)c1ccc2cc(OCc3ccc4ccccc4n3)ccc2c1 (centres unmarked) [WY 50,295]
[1]
  TPA % change in edema: -18%
  change in MPO for TPA model: -36
[2]
  AA % change in edema: -50%
  change in MPO for AA: -90

## CCN(CC)CCCC(C)Nc1c2ccc(Cl)cc2nc2ccc(OC)cc12 (centres unmarked) [quinacrine]
CoA-IT; at concentrations up to 500 μM
  effect on CoA-IT activity: no effect

## CCC(C)(C)c1ccc(Oc2ccc(C(F)(F)F)cc2NC(=O)Nc2cc(C(F)(F)F)cc(C(F)(F)F)c2)c(S(=O)(=O)O)c1 [Example 2, 2-[2-[3-[3,5-Bis(trifluoromethyl)phenyl]ureido]-4-trifluoromethylphenoxy]5-(1,1-dimethylpropyl)benzenesulfonic acid, sodium salt]
Human Monocytes; LTC4 release, A23187, read-out: LTC4 (as an IC50)
  IC50: 1000 nM
Human Monocytes; PGE2 release, A23187, read-out: PGE2 (as an IC50)
  IC50: > 10000 nM
[1]
  MPO ED50: 0.25 mg/ear
  edema ED50: 0.87 mg/ear
[1]; mouse ear inflammation models (TPA and AA)
  inhibition in these animal models: positive inhibition
[2]
  activity in the AA ear model: -25

## Cc1cc(C(C)(C)C)c(O)c(C(C)(C)C)c1 [BHT]
CoA-IT; at concentrations up to 100 μM
  effect on CoA-IT activity: no effect

## O=S1(=O)CCn2c1nc(-c1ccc(F)cc1)c2-c1ccncc1 [6-(4'-Fluorophenyl)-5-(4-pyridyl)2,3-dihydroimidzo-[2,1-b]thiazole-dioxide]
CoA-IT; at concentrations up to 100 μM
  effect on CoA-IT activity: no effect

## C[C@@H]1C[C@H]2[C@@H]3CCC4=CC(=O)C=C[C@]4(C)[C@@]3(F)[C@@H](O)C[C@]2(C)[C@@]1(O)C(=O)CO [dexamethasone]
[1]
  TPA % change in edema: -50%
  change in MPO for TPA model: -54
[2]
  AA % change in edema: -10%
  change in MPO for AA: 0

## COc1ccc2cc([C@H](C)C(=O)O)ccc2c1 [naproxen]
CoA-IT; at concentrations up to 100 μM
  effect on CoA-IT activity: no effect

## CN(C)CCC=C1c2ccccc2COc2ccccc21 [Doxepine]
CoA-IT; at concentrations up to 100 μM
  effect on CoA-IT activity: did not inhibit

## CCC(C)(C)c1ccc(Oc2ccc(C(F)(F)F)cc2NC(=O)Nc2ccc(Cl)c(C(F)(F)F)c2)c(S(=O)(=O)O)c1 [Example 3, 2-[2-[3-(4-Chloro-3-trifluoromethylphenyl)ureido]-4-trifluoromethylphenoxy]-5-(1,1-dimethylpropyl)benzenesulfonic acid, sodium salt]
[1]
  MPO ED50: 0.36 mg/ear
  edema ED50: 0.32 mg/ear
[2]
  activity in the AA ear model: -22

## COc1ccc2c(c1)c(CC(=O)O)c(C)n2C(=O)c1ccc(Cl)cc1 [indomethicin]
CoA-IT; at concentrations up to 100 μM
  effect on CoA-IT activity: no effect

## Fc1ccc(-c2nc3n(c2-c2ccncc2)CCS3)cc1 [6-(4'-Fluorophenyl)-5-(4pyridyl)-2,3-dihydroimidzo-[2,1-b]thiazole]
CoA-IT; at concentrations up to 100 μM
  effect on CoA-IT activity: no effect
